Data taken from paper PMC10935062 (Acta Pharmaceutica Sinica. B, 2023).

Assay: Water solubility
Format: physicochemical

water solubility: superior water solubility
Compound: NC(=O)c1ccc(C(=O)NOCc2ccc(Sc3ccc(N)cc3)c(C(F)(F)F)c2)cc1 [compound 11p]
